This note sets out measurements from PMC4453610 (British Journal of Cancer, 2014).

The nature of data set [1]: Pharmacokinetic analysis of sorafenib in plasma of patients. The data set is classed as in vivo, human. The settings on record: compared with previous studies of 400 mg b.i.d. sorafenib.
The nature of a further data set: clinical. The following applies: human, plasma, oral.
[2] abbreviates: Day 1 of Cycle 2 vs Day 5 of Cycle 1.
[3] abbreviates: geometric mean, with vs without sorafenib.

Regarding `CNC(=O)c1cc(Oc2ccc(NC(=O)Nc3ccc(Cl)c(C(F)(F)F)c3)cc2)ccn1` [sorafenib, Sorafenib], the “circulating concentrations of sorafenib when dosed in combination with cyclophosphamide and letrozole” value in data set [1] is given as “not significantly affected”.

`O=P1(N(CCCl)CCCl)NCCCO1` (centres unmarked) [cyclophosphamide]: under setting [2], the “average decrease in t1/2 when co-administered with sorafenib” value is 27%, the “average decrease of AUC (0–24) when co-administered with sorafenib” value was 29% and the “average reduction of Cmax when co-administered with sorafenib” value was 12%. Under setting [3], the “AUC(0–24) Ratio cycles 2/1, geometric mean” value worked out at 0.71 and the “Cmax Ratio cycles 2/1, geometric mean” value was found to be 0.88. In addition, in the data set “clinical” (AUC(0–24) Cycle 1, geometric mean, Day 5, Cycle 1, without sorafenib), the AUC(0-t) was 16700 ng·h/mL. In “clinical” (AUC(0–24) Cycle 2, geometric mean, Day 1, Cycle 2, with 400 mg bid sorafenib), the AUC(0-t) was determined as 11900 ng·h/mL.
